The results in this text go back to patent publication US9938273B2 (Plexxikon Inc., priority 2015, dated 2018).

pIC50: −log10 of the molar value.

The target in experiment [1] is T1, BA/F3-FLT3-ITD + D835Y cells (Homo sapiens, UniProt P36888, D835Y, cells depend on it, form not given).
T1 sequence (P36888 1-993 D835Y): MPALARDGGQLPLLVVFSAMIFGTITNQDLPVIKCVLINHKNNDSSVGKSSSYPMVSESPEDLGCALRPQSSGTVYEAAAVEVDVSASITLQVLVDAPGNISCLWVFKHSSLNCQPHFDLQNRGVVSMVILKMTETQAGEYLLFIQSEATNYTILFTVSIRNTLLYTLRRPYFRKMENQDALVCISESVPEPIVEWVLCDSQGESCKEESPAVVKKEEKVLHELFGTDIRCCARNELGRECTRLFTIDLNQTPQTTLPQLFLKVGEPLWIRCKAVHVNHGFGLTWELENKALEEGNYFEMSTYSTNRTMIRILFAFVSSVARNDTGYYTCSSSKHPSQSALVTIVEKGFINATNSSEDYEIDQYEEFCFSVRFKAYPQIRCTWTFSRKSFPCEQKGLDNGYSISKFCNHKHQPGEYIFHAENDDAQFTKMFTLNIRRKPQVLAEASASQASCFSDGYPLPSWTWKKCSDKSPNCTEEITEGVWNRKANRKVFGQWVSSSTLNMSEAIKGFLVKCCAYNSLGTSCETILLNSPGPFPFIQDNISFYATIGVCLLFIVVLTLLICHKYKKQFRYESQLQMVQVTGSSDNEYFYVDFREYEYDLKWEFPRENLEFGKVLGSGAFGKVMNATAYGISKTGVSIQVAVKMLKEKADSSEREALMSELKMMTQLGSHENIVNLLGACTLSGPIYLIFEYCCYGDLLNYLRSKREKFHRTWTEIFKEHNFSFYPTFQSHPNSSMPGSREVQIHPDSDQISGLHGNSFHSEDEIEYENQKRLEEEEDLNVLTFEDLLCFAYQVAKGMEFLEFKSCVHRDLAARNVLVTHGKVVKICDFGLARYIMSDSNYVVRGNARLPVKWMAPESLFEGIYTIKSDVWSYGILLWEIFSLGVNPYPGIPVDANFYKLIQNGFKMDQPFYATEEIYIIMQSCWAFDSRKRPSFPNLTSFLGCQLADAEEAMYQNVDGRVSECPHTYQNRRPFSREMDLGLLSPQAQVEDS
In words: Cell proliferation assay (CellTiter-Glo), engineered BA/F3 cells. It is filed as cell-based, murine. The following applies: BaF3 FLT3 ITD/D835Y cells, 3d-Growth; read-out: BaF3_FLT3 ITD/D835Y 3d-Growth: IC50. In short, it runs like this:
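Three-day growth at 37 °C, 5% CO2 under compound (1 μM top final, 1:3 dilutions, eight points, 0.2% DMSO), read as ATP luminescence by CellTiter-Glo for IC50. Cells: MOLM-14 with FLT3 ITD plus D835Y or F691L, and IL-3-deprived Ba/F3 transfected with FLT3 ITD/D835Y, 1×10^4 per well.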
(In general: In ATP-based viability assays light output follows the ATP content of the culture.)

In experiment [2] the target is T2, c-KIT (Homo sapiens, UniProt P10721).
T2 construct: purchased Millipore 14-559K
T2 sequence (P10721 26-976): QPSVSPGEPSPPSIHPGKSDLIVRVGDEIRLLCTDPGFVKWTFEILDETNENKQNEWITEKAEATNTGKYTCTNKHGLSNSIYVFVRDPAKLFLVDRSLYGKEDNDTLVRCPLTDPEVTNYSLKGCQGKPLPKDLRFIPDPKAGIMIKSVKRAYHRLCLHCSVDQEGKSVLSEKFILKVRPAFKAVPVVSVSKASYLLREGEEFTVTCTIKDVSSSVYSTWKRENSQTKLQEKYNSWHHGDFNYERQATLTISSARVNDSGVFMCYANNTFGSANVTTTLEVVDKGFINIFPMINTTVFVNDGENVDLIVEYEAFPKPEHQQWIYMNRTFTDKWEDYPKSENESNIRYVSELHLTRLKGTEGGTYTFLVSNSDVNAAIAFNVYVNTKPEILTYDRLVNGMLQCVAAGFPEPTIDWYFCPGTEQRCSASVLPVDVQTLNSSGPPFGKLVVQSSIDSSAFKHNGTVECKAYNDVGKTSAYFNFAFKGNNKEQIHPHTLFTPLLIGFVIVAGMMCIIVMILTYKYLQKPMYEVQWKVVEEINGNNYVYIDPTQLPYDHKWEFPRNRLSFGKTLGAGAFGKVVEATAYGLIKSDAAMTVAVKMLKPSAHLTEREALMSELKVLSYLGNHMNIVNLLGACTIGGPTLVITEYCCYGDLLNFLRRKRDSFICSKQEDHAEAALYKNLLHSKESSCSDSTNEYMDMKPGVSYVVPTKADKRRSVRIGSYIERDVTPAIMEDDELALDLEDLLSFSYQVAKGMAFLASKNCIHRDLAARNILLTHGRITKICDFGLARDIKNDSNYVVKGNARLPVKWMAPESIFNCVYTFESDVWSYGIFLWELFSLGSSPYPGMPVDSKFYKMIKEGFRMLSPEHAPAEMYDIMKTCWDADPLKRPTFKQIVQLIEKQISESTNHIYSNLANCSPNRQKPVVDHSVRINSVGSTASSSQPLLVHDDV
The experiment can be described thus: AlphaScreen kinase assay with recombinant enzyme, c-KIT. The format is biochemical. To be noted: 100ATP, 8pt, GMean. An outline of the steps:
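Tyrosine phosphorylation of biotin-poly(Glu4-Tyr) substrate by recombinant enzyme is detected with PY20 acceptor and streptavidin donor beads after room-temperature incubations of 20 and 60 min. IC50 values were derived at a final 10 μM (FLT3-D835Y, FLT3-ITD) or 100 μM (c-KIT).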

The term pIC50 denotes −log10 of the IC50, conventionally taken in molar units. Regarding `CNC1CCN(C(=O)c2cccc(-c3cnc4[nH]c(-c5ccnc(OC)c5)cc4c3)n2)C1` (stereo not drawn) [Compound P-0060, [6-[2-(2-methoxy-4-pyridyl)-1H-pyrrolo[2,3-b]pyridin-5-yl]-2-pyridyl]-[3-(methylamino)pyrrolidin-1-yl]methanone], the GI50 in experiment [1] was in the range of 0.0001 to 10 µM. In addition, the pIC50 in experiment [2] was 5.00 to 10.00.
For `CNC1CCN(C(=O)c2cccc(-c3cnc4[nH]c(-c5ccccc5)cc4c3)n2)C1` (stereo not drawn) [Compound P-0040, [3-(methylamino)pyrrolidin-1-yl]-[6-(2-phenyl-1H-pyrrolo[2,3-b]pyridin-5-yl)-2-pyridyl]methanone], in that order: 0.0001 to 10 µM and 5.00 to 10.00.
For the molecule `CNCC1CCN(C(=O)c2cccc(-c3cnc4[nH]c(-c5ccccc5)cc4c3)n2)C1` (stereo not drawn) [Compound P-0079, [3-(methylaminomethyl)pyrrolidin-1-yl]-[6-(2-phenyl-1H-pyrrolo[2,3-b]pyridin-5-yl)-2-pyridyl]methanone], the GI50 in experiment [1] was in the range of 0.0001 to 10 µM.
As to `CC1CCN(C(=O)c2n[nH]c3ccc(-c4cnc5[nH]c(-c6ccccc6)cc5c4)cc23)CC1` [Compound P-0027, (4-methyl-1-piperidyl)-[5-(2-phenyl-1H-pyrrolo[2,3-b]pyridin-5-yl)-1H-indazol-3-yl]methanone], the GI50 in experiment [1] lay within 0.0001 to 10 µM. Also, the pIC50 in experiment [2] is 4.00 to 4.30.
As to `NC1CCC(NS(=O)(=O)c2cccc(-c3cnc4[nH]c(-c5ccccc5)cc4c3)n2)CC1` (stereo not drawn) [Compound P-0088, N-(4-aminocyclohexyl)-6-(2-phenyl-1H-pyrrolo[2,3-b]pyridin-5-yl)pyridine-2-sulfonamide], the GI50 in experiment [1] was 0.0001 to 10 µM. In experiment [2], the pIC50 is 5.00 to 10.00.
For `CN1CCC(NC(=O)c2n[nH]c3ccc(-c4cnc5[nH]c(-c6ccccc6)cc5c4)cc23)CC1` [Compound P-0022, N-(1-methyl-4-piperidyl)-5-(2-phenyl-1H-pyrrolo[2,3-b]pyridin-5-yl)-1H-indazole-3-carboxamide], in that order: 0.0001 to 10 µM and 5.00 to 10.00.
For `NC1CCN(C(=O)c2cccc(-c3cnc4[nH]c(-c5ccccc5)cc4c3)n2)CC1` [Compound P-0013, (4-amino-1-piperidyl)-[6-(2-phenyl-1H-pyrrolo[2,3-b]pyridin-5-yl)-2-pyridyl]methanone], in that order: 0.0001 to 10 µM and 5.00 to 10.00.
For `O=C(c1cccc(-c2cnc3[nH]c(-c4ccccc4)cc3c2)n1)N1CC(F)(F)C1` [Compound P-0090, (3,3-difluoroazetidin-1-yl)-[6-(2-phenyl-1H-pyrrolo[2,3-b]pyridin-5-yl)-2-pyridyl]methanone], in that order: 0.0001 to 10 µM and 4.00 to 4.30.
Consider `COC1CCN(C(=O)c2cccc(-c3cnc4[nH]c(-c5ccccc5)cc4c3)n2)CC1` [Compound P-0098, (4-methoxy-1-piperidyl)-[6-(2-phenyl-1H-pyrrolo[2,3-b]pyridin-5-yl)-2-pyridyl]methanone], for which the GI50 in experiment [1] fell in the range of 0.0001 to 10 µM. Also, the pIC50 in experiment [2] was 4.00 to 4.30.
For `NC1CCN(C(=O)c2n[nH]c3ccc(-c4cnc5[nH]c(-c6ccccc6)cc5c4)cc23)CC1` [Compound P-0012, (4-amino-1-piperidyl)-[5-(2-phenyl-1H-pyrrolo[2,3-b]pyridin-5-yl)-1H-indazol-3-yl]methanone], in that order: 0.0001 to 10 µM and 5.00 to 10.00.
For `CNC1CCN(C(=O)c2cccc(-c3cnc4[nH]c(-c5cccc(C#N)c5)cc4c3)n2)C1` (stereo not drawn) [Compound P-0062, 3-[5-[6-[3-(methylamino)pyrrolidine-1-carbonyl]-2-pyridyl]-1H-pyrrolo[2,3-b]pyridin-2-yl]benzonitrile], in that order: 0.0001 to 10 µM and 4.30 to 5.00.
Regarding `O=S(=O)(NC1CC1)c1cccc(-c2cnc3[nH]c(C#CC4CCCCC4)cc3c2)c1` [Compound P-0010, 3-[2-(2-cyclohexylethynyl)-1H-pyrrolo[2,3-b]pyridin-5-yl]-N-cyclopropyl-benzenesulfonamide], in experiment [1], the GI50 was in the range of 0.0001 to 10 µM.
Same read-out and setting: in the case of `CC1(N)CCN(C(=O)c2cccc(-c3cnc4[nH]c(-c5ccccc5)cc4c3)n2)C1` (stereo not drawn) [Compound P-0078, (3-amino-3-methyl-pyrrolidin-1-yl)-[6-(2-phenyl-1H-pyrrolo[2,3-b]pyridin-5-yl)-2-pyridyl]methanone] it was 0.0001 to 10 µM; in that of `O=S(=O)(NC1CC1)c1cccc(-c2cnc3[nH]c(C#CCO)cc3c2)c1` [Compound P-0008, N-cyclopropyl-3-[2-(3-hydroxyprop-1-ynyl)-1H-pyrrolo[2,3-b]pyridin-5-yl]benzenesulfonamide], 0.0001 to 10 µM.
Regarding `CC(C)(C#N)NC(=O)c1cccc(-c2cnc3[nH]c(-c4ccc(F)nc4)cc3c2)n1` [Compound P-0208, N-(1-cyano-1-methyl-ethyl)-6-[2-(6-fluoro-3-pyridyl)-1H-pyrrolo[2,3-b]pyridin-5-yl]pyridine-2-carboxamide], the pIC50 in experiment [2] is 4.00 to 4.30.
On the same count and under the same terms, in the case of `CC(C)(C#N)NC(=O)c1cccc(-c2cnc3[nH]c(-c4cnc(C(C)(C)O)nc4)cc3c2)n1` [Compound P-0211, N-(1-cyano-1-methyl-ethyl)-6-[2-[2-(1-hydroxy-1-methyl-ethyl)pyrimidin-5-yl]-1H-pyrrolo[2,3-b]pyridin-5-yl]pyridine-2-carboxamide] it was 4.00 to 4.30.
Consider `CN1CC(NC(=O)c2cccc(-c3cnc4[nH]c(-c5ccccc5)cc4c3)n2)C1` [Compound P-0075, N-(1-methylazetidin-3-yl)-6-(2-phenyl-1H-pyrrolo[2,3-b]pyridin-5-yl)pyridine-2-carboxamide], for which the GI50 in experiment [1] fell in the range of 0.0001 to 10 µM.
As for `CC(C)(C#N)NC(=O)c1cccc(-c2cnc3[nH]c(-c4ccc(C(F)(F)F)nc4)cc3c2)n1` [Compound P-0201, N-(1-cyano-1-methyl-ethyl)-6-[2-[6-(trifluoromethyl)-3-pyridyl]-1H-pyrrolo[2,3-b]pyridin-5-yl]pyridine-2-carboxamide], the negative logarithm of the IC50 (pIC50) in experiment [2] is 4.00 to 4.30.
In the case of `CC(C)(C)OC(=O)NC1CCN(C(=O)c2n[nH]c3ccc(-c4cnc5[nH]c(-c6ccccc6)cc5c4)cc23)CC1` [Compound P-0011, tert-butyl N-[1-[5-(2-phenyl-1H-pyrrolo[2,3-b]pyridin-5-yl)-1H-indazole-3-carbonyl]-4-piperidyl]carbamate], in experiment [1], the GI50 is 0.0001 to 10 µM.
The same measure, in the same setting: then `O=S(=O)(NC1CC1)c1cccc(-c2cnc3[nH]c(C#Cc4ccccc4)cc3c2)c1` [Compound P-0014, N-cyclopropyl-3-[2-(2-phenylethynyl)-1H-pyrrolo[2,3-b]pyridin-5-yl]benzenesulfonamide], with 0.0001 to 10 µM; and `CN(C)CC#Cc1cc2cc(-c3cccc(S(=O)(=O)NC4CC4)c3)cnc2[nH]1` [Compound P-0009, N-cyclopropyl-3-[2-[3-(dimethylamino)prop-1-ynyl]-1H-pyrrolo[2,3-b]pyridin-5-yl]benzenesulfonamide], with 0.0001 to 10 µM; and `NC1(C(F)(F)F)CCN(C(=O)c2cccc(-c3cnc4[nH]c(-c5ccccc5)cc4c3)n2)C1` (stereo not drawn) [Compound P-0077, [3-amino-3-(trifluoromethyl)pyrrolidin-1-yl]-[6-(2-phenyl-1H-pyrrolo[2,3-b]pyridin-5-yl)-2-pyridyl]methanone], with 0.0001 to 10 µM.
In the case of `CC(C)(C#N)NC(=O)c1cccc(-c2cnc3[nH]c(-c4cnc(C(F)(F)F)nc4)cc3c2)n1` [Compound P-0204, N-(1-cyano-1-methyl-ethyl)-6-[2-[2-(trifluoromethyl)pyrimidin-5-yl]-1H-pyrrolo[2,3-b]pyridin-5-yl]pyridine-2-carboxamide], in experiment [2], the negative logarithm of the IC50 (pIC50) is 4.00 to 4.30.
